Test: Pharmacokinetics of released PEGylated protease inhibitor following P.O. administration of prodrugs in rats
Type: in vivo, male Sprague-Dawley rats
Design: AUCall Mean: concentration or dose not given beside the values; C24 Mean: unit not given here
Conditions: rats (n = 4-5); for C24 Mean: concentration at 24 hours
Method: Pharmacokinetic analysis of protease inhibitors described herein was conducted. To evaluate the pharmacokinetics of PEGylated protease inhibitor conjugates with releasable lipophilic attachments, test compounds were administered to male Sprague-Dawley rats.
At various times following test article administration, serial blood samples were collected from indwelling jugular vein catheters and transferred to micro-tubes containing 7.5 μL of 20% w/v K2EDTA as an anticoagulant. Following processing of the blood samples to plasma (10 minutes at 10000 rpm, Centrifuge Model: Kubota 3500), plasma concentrations of the test article or corresponding PEGylated molecule released from the test article was measured using LC-MS/MS methods. Pharmacokinetic parameters were estimated using noncompartmental methods.

[1] = mPEG3-atazanavir in plasma after PO administration of mPEG3-ATV or of the listed prodrug
[2] = mPEG6-atazanavir in plasma after PO administration of mPEG6-ATV or of the listed prodrug
[3] = mPEG5-atazanavir in plasma after PO administration of mPEG5-ATV or of the listed prodrug

Row | Compound | AUCall Mean [2] | Cmax Mean [2] | MRT last Mean [2] | Tmax Median [2] | AUCall Mean [3] | Cmax Mean [3] | MRT last Mean [3] | Tmax Median [3] | further results
1 | CCCC(=O)O[C@@H](CN(Cc1ccc(-c2ccccn2)cc1)NC(=O)[C@@H](NC(=O)OC)C(C)(C)C)[C@H](Cc1ccccc1)NC(=O)[C@@H](NC(=O)OCCOCCOCCOC)C(C)(C)C [C3H7CO-mPEG3-ATV, mPEG3-Atazanavir Butyrate] | – | – | – | – | – | – | – | – | C24 Mean [1]: 0.00; AUCall Mean [1]: 11.4 ng·h/mL; Cmax Mean [1]: 3.08 ng/mL; MRT last Mean [1]: 1.56 h; Tmax* Median [1]: 1.00 h
2 | COCCOCCOCCOCCOCCOCCOC(=O)NC(C(=O)NC(Cc1ccccc1)C(CN(Cc1ccc(-c2ccccn2)cc1)NC(=O)C(NC(=O)OC)C(C)(C)C)OC(=O)C(N)C(C)C)C(C)(C)C.Cl [mPEG6-ATV-L-valine, mPEG6-Atazanavir-L-Valine HCl] | 73.1 ng·h/mL | 4.05 ng/mL | 18.9 h | 12.0 h | – | – | – | – | –
3 | CCC(=O)OC(CN(Cc1ccc(-c2ccccn2)cc1)NC(=O)C(NC(=O)OC)C(C)(C)C)C(Cc1ccccc1)NC(=O)C(NC(=O)OCCOCCOCCOCCOCCOC)C(C)(C)C (stereo not drawn) [C2H5CO-mPEG5-ATV, mPEG5-Atazanavir Propionate] | – | – | – | – | 39.1 ng·h/mL | 6.90 ng/mL | 4.04 h | 0.750 h | –
4 | COCCOCCOCCOCCOCCOCCOC(=O)N[C@H](C(=O)N[C@@H](Cc1ccccc1)[C@@H](O)CN(Cc1ccc(-c2ccccn2)cc1)NC(=O)[C@@H](NC(=O)OC)C(C)(C)C)C(C)(C)C [PEG6-ATV, mPEG6-atazanavir] | 97.6 ng·h/mL | 26.8 ng/mL | 4.93 h | 0.250 h | – | – | – | – | –
5 | CCCCCC(=O)O[C@@H](CN(Cc1ccc(-c2ccccn2)cc1)NC(=O)[C@@H](NC(=O)OC)C(C)(C)C)[C@H](Cc1ccccc1)NC(=O)[C@@H](NC(=O)OCCOCCOCCOC)C(C)(C)C [C5H11CO-mPEG3-ATV, C5H11CO-mPEG3-atazanavir] | – | – | – | – | – | – | – | – | AUCall Mean [1]: 33.9 ng·h/mL; Cmax Mean [1]: 7.51 ng/mL; MRT last Mean [1]: 2.78 h; Tmax* Median [1]: 2.00 h
6 | mPEG6-atazanavir-ethoxy-CME-Leu-Leu [mPEG6-ATV-Ethoxy-CM-Leu-Leu] | 40.6 ng·h/mL | 2.07 ng/mL | 13.8 h | 4.00 h | – | – | – | – | –
7 | CCOCO[C@@H](CN(Cc1ccc(-c2ccccn2)cc1)NC(=O)[C@@H](NC(=O)OC)C(C)(C)C)[C@H](Cc1ccccc1)NC(=O)[C@@H](NC(=O)OCCOCCOCCOCCOCCOC)C(C)(C)C [Methyl ethyl ether mPEG5-ATV, mPEG5-Atazanavir Methyl Ethyl Ether] | – | – | – | – | 489 ng·h/mL | 95.1 ng/mL | 6.19 h | 1.00 h | C24 Mean [3]: 2.7
8 | CCCCCC(=O)O[C@@H](CN(Cc1ccc(-c2ccccn2)cc1)NC(=O)[C@@H](NC(=O)OC)C(C)(C)C)[C@H](Cc1ccccc1)NC(=O)[C@@H](NC(=O)OCCOCCOCCOCCOCCOC)C(C)(C)C [C5H11CO-mPE5-ATV, C5H11CO-mPEG5-atazanavir] | – | – | – | – | 23.7 ng·h/mL | 7.38 ng/mL | 2.42 h | 0.500 h | –
9 | COCCOCCOCCOCCOCCOC(=O)NC(C(=O)NC(Cc1ccccc1)C(CN(Cc1ccc(-c2ccccn2)cc1)NC(=O)C(NC(=O)OC)C(C)(C)C)OC(=O)CNC(=O)C(N)Cc1ccccc1)C(C)(C)C.Cl (stereo not drawn) [Phe-Gly-mPEG5-Atazanavir HCl, Phe-Gly-mPEG5-Atazanavir Hydrochloride] | – | – | – | – | 33.7 ng·h/mL | 3.10 ng/mL | 12.0 h | 12.0 h | C24 Mean [3]: 0.169

Source: patent publication US20120108501A1, “Protease Inhibitors” (priority 2009, published 2012)
